The record followed here is the NIST ThermoML archive (doi:10.1016/j.fluid.2015.07.017).

± gives the expanded uncertainty stated by the source.

For series [1] the following is noted: 293.15 K; 101.33 kPa; Liquid; Pycnometric method.
The nature of series [2]: Boiling temperature at pressure P. To be noted: Liquid, Ebulliometric method (Recirculating still).
The nature of series [3]: refractive index (Na D-line) (dimensionless). To be noted: 298.15 K; 101.33 kPa; Liquid; Standard Abbe refractometry.

Usually mass density stands for the mass of a sample divided by its volume. Broadly, the refractive index is a measure of how strongly the sample bends light. Regarding `CCCOCOC` [1-(methoxymethoxy)propane], the mass density in series [1] came to 841.4 ± 0.8 kg/m3. Further, the “Boiling temperature at pressure P” value in series [2] (8.17 kPa) amounted to 29.97 ± 0.11 °C; in series [2] (12.41 kPa), 38.00 ± 0.11 °C; in series [2] (18.11 kPa) it was 46.03 ± 0.1 °C; in series [2] (26.67 kPa), 54.81 ± 0.1 °C; in series [2] (36.4 kPa), 62.67 ± 0.1 °C; in series [2] (44.6 kPa) it was 68.11 ± 0.1 °C. Besides, the “Boiling temperature at pressure P” value in series [2] (53.33 kPa) was 73.17 ± 0.1 °C; in series [2] (59.35 kPa) it was 76.2 ± 0.1 °C; in series [2] (69.65 kPa), 81.07 ± 0.1 °C; in series [2] (79.9 kPa) it was 85.2 ± 0.1 °C; in series [2] (87.9 kPa) it was 88.33 ± 0.1 °C; in series [2] (94.9 kPa) it was 90.82 ± 0.1 °C. Besides, the “Boiling temperature at pressure P” value in series [2] (101.33 kPa) was determined as 92.97 ± 0.1 °C; in series [2] (112 kPa) it was 96.14 ± 0.1 °C. Besides, the refractive index in series [3] is given as 1.3757 ± 0.0007.
With `CO` [methanol], the mass density in series [1] was found to be 791.1 ± 0.7 kg/m3. Further, the “Boiling temperature at pressure P” value in series [2] (101.33 kPa) came to 64.71 ± 0.1 °C. The refractive index in series [3] came out at 1.3269 ± 0.0007.
For `CCCO` [propan-1-ol], in that order: 803.7 ± 0.7 kg/m3, 97.20 ± 0.1 °C and 1.3836 ± 0.0007.
